How the values were obtained:
nucleic acids [1] = conditions: cited from earlier work
B. cereus = test: Fluorescence per cell, stained bacteria (microtiter plate reader); type: cell-based, Bacillus cereus; conditions: optimal dye concentration, corrected for cell number
Method: (§1) 1. Measured in a fluorescence microtiter plate reader with extraction and
(§2) emission filters at 485+/-10 and 530+/-12, respectively. Fluorescence dat
(§3) are corrected for cell number; but are not corrected for cell volume or
(§4) 2. Optimal dye concentrations determined as in Example 3.
(§5) 3. Suspension concentrations as used for Example 3.
(§6) A culture of E. coli is washed by centrifugation and resuspended in water to its original volume. Using Corning 96-well microtiter plates with flat bottoms, 150 μL volumes of suspension are loaded per well. A single well of sterile water is the well background standard. Using a Dynatech MR600 microplate reader equipped with a 410 nm filter, absorbance is determined for the initial volumes of suspension. The suspension is diluted seven times by serial ten-fold dilutions in water, 150 μL of suspension per well, and the absorbance measured for each dilution. Following the absorbance measurements, each dilution loaded into wells is further diluted 1:10 and plated in duplicate on nutrient growth agar. The colonies are counted and expressed as colony forming units per milliliter (cfu/mL). Using the turbidity of the dilution in the microtiter plate, the suspension is diluted to a density of about 1×10^9 cfu/mL.
(§7) The bacteria suspension, adjusted to a known density as described above, is diluted seven times by serial ten-fold dilutions in water; 150 μL of suspension per well. Three-fold serial dilutions of dye are used (30-0.04 μM); 50 μL of dye at 4× final concentration. Using Corning 96-well microtiter flat-bottom plates, a matrix is set up whereby the cell concentration decreases across the plate and the dye concentration decreases down the plate, final volume per well is 200 μL. The top row and first column are reserved for the control, sterile water. The plate is incubated at 37° C. for 30 minutes, then read in a Millipore Cytofluor™ 2350 96-well fluorescence microplate reader at a fixed excitation of 485+/-10 nm and each of three emission wavelengths, 530+/-12, 620+/-20, or 645+/-20 nm. The results determine the best dye range (30-1 μM) and the best cell concentrations (concentrated through first three ten-fold dilutions) for optimal dye loading. […] Using the four dye dilutions and the four bacterial dilutions, many bacteria and dyes can be assayed quickly. The data collected allow the determination of optimal dye and cell concentration required for maximal fluorescence intensity per cell.

M. luteus = test: as above; type: cell-based, Micrococcus luteus; conditions: optimal dye concentration, corrected for cell number
Method: as §1, §2, §3, §4, §5, §6, §7

S. pyogenes = test: as above; type: cell-based, Streptococcus pyogenes; conditions: optimal dye concentration, corrected for cell number
Method: as §1, §2, §3, §4, §5, §6, §7

S. aureus = test: as above; type: cell-based, Staphylococcus aureus; conditions: for Fluorescence/Cell (ex 485/em 530): S. aureus, optimal dye concentration, corrected for cell number; for Normalized Fluorescence/cell (ex 485 nm/em 530 nm), Staphylococcus aureus: scaled to thiazole orange
Description: as §1, §2, §3, §4, §5
(§8) Factors such as degree of fluorescence enhancement with nucleic acid binding, self quenching, molar extinction coefficient, membrane permeability, intracellular partitioning, nucleic acid binding affinity, and quantum yield contribute to the overall fluorescence of nucleic acid stains in cells. Enhanced cell fluorescence obtained with Dye I is related to unexpected properties other than quantum yield alone. Quantum yield is determined as described above (foot note to Table 2). Normalized quantum yield is determined to illustrate the fold-change in quantum yield of Dye I compared with thiazole orange, a related cell-permeant dye. The normalized fluorescence values represent the quantum yield of each dye divided by the quantum yield of thiazole orange. Fluorescence per cell is also scaled to thiazole orange values for both E. coli and S. aureus to allow direct comparison between relative (normalized) quantum yield and relative (normalized) fluorescence/cell.
as §6, §7

E. coli = test: as above; type: cell-based, Escherichia coli; conditions: for Fluorescence/Cell (ex 485/em 530): E. coli, optimal dye concentration, corrected for cell number; for Normalized Fluorescence/cell (ex 485 nm/em 530 nm), Escherichia coli: scaled to thiazole orange
Description: as §1, §2, §3, §4, §5, §8, §6, §7

S. oranienburg = test: as above; type: cell-based, Salmonella oranienburg; conditions: optimal dye concentration, corrected for cell number
Method: as §1, §2, §3, §4, §5, §6, §7

K. pneumonia = test: as above; type: cell-based, Klebsiella pneumonia; conditions: optimal dye concentration, corrected for cell number
Method: as §1, §2, §3, §4, §5, §6, §7

S. sonnei = test: as above; type: cell-based, Shigella sonnei; conditions: optimal dye concentration, corrected for cell number
Method: as §1, §2, §3, §4, §5, §6, §7

P. aeruginosa = test: as above; type: cell-based, Pseudomonas aeruginosa; conditions: optimal dye concentration, corrected for cell number
Method: as §1, §2, §3, §4, §5, §6, §7

nucleic acids [2] = test: Excitation/emission maxima of dyes complexed with nucleic acids; type: physicochemical; set-up: key: wavelength in nm; conditions: Table 2; dye complexed with nucleic acids
Description: Dye I is lightly colored and is virtually non-fluorescent when diluted in aqueous solution according to the method of the invention. Dye I is highly membrane-permeant and labels all cells, whether live or dead. When Dye I binds with intracellular nucleic acid polymers such as DNA and RNA, the resultant dye-nucleic acid complex becomes extremely fluorescent upon illumination. The quantum yield of the preferred Dye I/DNA complex is greater than 0.02, typically greater than 0.1, preferably greater than 0.2, and more preferably greater than 0.3. Typically, Dye I combines with intracellular nucleic acids to give a green or red fluorescence. When excited at a wavelength between about 300 nm and about 500 nm, the dyes complexed with nucleic acids have an emission maximum between about 500 and about 610 nm (see Table 2). Preferably, Dye I complexed with nucleic acids has an emission maximum of between about 500 nm and about 535 nm, resulting in a true green fluorescent signal in cells of the sample where Dye I is present alone.

DNA = test: Quantum yield of dye on DNA versus fluorescein; type: physicochemical; conditions: for Normalized QY: QY divided by QY of thiazole orange; for QY (DNA): Table 2, Tris buffered saline pH 10, fluorescein assumed 0.92; for QY: Table 7, on DNA, fluorescein reference
Description: ^ Quantum yield (QY) of dye on DNA (standard solution in Tris buffere
saline adjusted to pH 10) in comparison with fluorescein, which is assume
to have a quantum yield of 0.92 under the test conditions.
as §8

calf thymus DNA = conditions: Table 5; bound to excess calf thymus DNA (50 bp/dye); cited from earlier work
prokaryotic microbes = conditions: Kaneshiro et al. 1993; cited from earlier work
intact cells = conditions: cited from earlier work

Compound | Fluorescence/Cell (ex 485/em 530) (B. cereus) | Fluorescence/Cell (ex 485/em 530) (M. luteus) | Fluorescence/Cell (ex 485/em 530) (S. pyogenes) | Fluorescence/Cell (ex 485/em 530) (S. aureus) | Normalized Fluorescence/cell (ex 485 nm/em 530 nm), Staphylococcus aureus (S. aureus) | Fluorescence/Cell (ex 485/em 530) (E. coli) | Normalized Fluorescence/cell (ex 485 nm/em 530 nm), Escherichia coli (E. coli) | Fluorescence/Cell (ex 485/em 530) (S. oranienburg) | Fluorescence/Cell (ex 485/em 530) (K. pneumonia) | Fluorescence/Cell (ex 485/em 530) (S. sonnei) | Fluorescence/Cell (ex 485/em 530) (P. aeruginosa) | EM max (nucleic acids [2]) | EX max (nucleic acids [2]) | Normalized QY (DNA) | QY (DNA) (DNA) | QY (DNA) | other results
N=C(N)c1ccc(-c2cc3ccc(C(=N)N)cc3[nH]2)cc1 [DAPI] |  |  |  |  |  |  |  |  |  |  |  |  |  |  |  |  | excitability of nucleic acid complex (nucleic acids [1]; background): only excitable with UV light; spectral overlap of DNA-bound dye with cellular autofluorescence (nucleic acids [1]; background): overlap significantly with cellular autofluorescence
CCOc1ccc(-c2nc3ccc(-c4nc5ccc(N6CCN(C)CC6)cc5[nH]4)cc3[nH]2)cc1 [Hoechst 33342] |  |  |  |  |  |  |  |  |  |  |  |  |  |  |  |  | excitability of nucleic acid complex (nucleic acids [1]; background): only excitable with UV light; spectral overlap of DNA-bound dye with cellular autofluorescence (nucleic acids [1]; background): overlap significantly with cellular autofluorescence
CN1C(=Cc2cc[n+](C)c3ccccc23)Sc2ccccc21 [Thiazole Orange, reference compound] | 51 | 21 | < 0.01 | 3.2 | 1.0 | 2 | 1 | 1 | 3 | 1 | 2 | 530 | 510 | 1.0 | 0.18 | 0.18 | EM max (calf thymus DNA): 525 nm; EX max (calf thymus DNA): 509 nm
CN(C)c1ccc2cc3ccc(N(C)C)cc3nc2c1 [acridine orange] |  |  |  |  |  |  |  |  |  |  |  |  |  |  |  |  | fluorescence enhancement upon binding to nucleic acids (nucleic acids [1]; background): about two-fold; background signal (nucleic acids [1]): high background signal
CCCCC1=CC(=Cc2oc3ccccc3[n+]2C)c2ccccc2N1c1ccccc1 [compound 624] | 709 | 162 | 0.05 | 44 | 13.8 | 24 | 12 | 15 | 17 | 11 | 14 | 501 | 480 | 3.2 | 0.58 | 0.58 | 
COC1=CC(=Cc2sc3ccccc3[n+]2C)c2ccccc2N1c1ccccc1 [compound 628] | 613 | 149 | 0.04 | 34 | 10.6 | 28 | 14 | 19 | 20 | 16 | 14 | 506 | 488 | 2.2 | 0.40 | 0.40 | 
CCCCCCN1C=CC(=Cc2sc3ccccc3[n+]2C)c2ccccc21 [compound 634] | 154 | 58 | 0.03 | 15 | 4.7 | 4 | 2 | 5 | 4 | 4 | 3 | 530 | 510 | 1.0 | 0.18 | 0.18 | 
C[n+]1c(C=C2C=CN(c3ccccc3)c3ccccc32)sc2ccccc21 [dye 63] | 93 | 33 | 0.01 | 5 | 1.6 | 6 | 3 | 4 | 5 | 3 | 3 | 531 | 514 | 1.3 | 0.24 | 0.24 | 
Nc1ccc2c(c1)c(-c1ccccc1)[n+](CCCNCCNCCC[n+]1c(-c3ccccc3)c3cc(N)ccc3c3ccc(N)cc31)c1cc(N)ccc21 [ethidium homodimer] |  |  |  |  |  |  |  |  |  |  |  |  |  |  |  |  | usefulness with prokaryotic microbes versus eukaryotic microbes (prokaryotic microbes): less useful with cells from prokaryotic microbes
Calcein AM |  |  |  |  |  |  |  |  |  |  |  |  |  |  |  |  | T1/2 (time for half of dye to leak from intact cells) (intact cells; 37° C., up to): up to 3 hour; Loading (intact cells; in words): Easily loaded; Retention (intact cells; in words): very good; pH sensitivity (intact cells; in words): not very; usefulness with prokaryotic microbes versus eukaryotic microbes (prokaryotic microbes): less useful with cells from prokaryotic microbes
